Test results reported in patent US20240100125A1 (ENYO PHARMA, priority 2021, published 2024).

Legend:
HBV [1] = assay: 4-week treatment course in HBV chronically infected patients: HBV replication markers (pgRNA, HBcrAg, HBsAg); format: in vivo, human
FXR = FXR engagement markers (C4, FGF19) in HBV chronically infected patients; format: in vivo, human; settings: all EYP001 doses; data not shown
[2] = Pruritus under EYP001 once a day versus twice a day in combined treatment with IFN-α; format: in vivo, human; settings: EYP001 once a day rather than twice a day
Method: Therefore, in a particular aspect, the FXR agonist is administered once a day.

HBV [3] = settings: chronic hepatitis B patients; cited from earlier work
[4] = system: HBV infected primary human hepatocytes (PHH); assay: HBV replication in infected primary human hepatocytes (PHH), FXR agonist +/- IFN-alpha; format: cell-based; settings: treated day 4 to 10 post-infection, harvested day 10, GW4064 1 or 10 uM, IFN-alpha 100 IU/mL
Method: FIG. 3. […] Freshly prepared and seeded PHH were infected with HBV at a multiplicity of infection of 250 GE/cell. From day 4 to 10 post-infection, cells were treated with […], +/−IFN-alpha at 100 IU/mL, or vehicle (NT), or IFN-alpha at 100 IU/mL alone. Cells and supernatants were harvested at day 10 for intracellular HBV RNA, viremia, and secreted antigens (HBsAg and HBeAg) quantification. Results are the mean+/−SD of one experiment performed with three biological replicates.
FIG. 4. […] Freshly prepared and seeded PHH were infected with HBV at a multiplicity of infection of 250 GE/cell. From day 4 to 10 post-infection, cells were treated with Vonafexor at 10 uM, or Nidufexor at 10 uM, or Tropifexor at 1 uM, or OCA at 10 uM, or GW4064 at 10 uM, +/−IFN-alpha (IFN) at 100 IU/mL, or vehicle, or IFN-alpha at 100 IU/mL alone. Supernatants were harvested at day 10 for secreted HBs antigen (HBsAg) quantification. Results are the mean+/−SEM of five experiments performed with three replicates.
Supernatants containing HBV particles were clarified (0.45 μm filter) and concentrated with 8% PEG 8000 (Sigma-Aldrich).
HBV DNA was quantified using the AmpliPrep/COBAS® TaqMan® HBV Test (Roche).
HBs and HBe antigens secreted in cells supernatant were quantified, after required dilutions, with Autobio kits (AutoBio, China) according to manufacturer's protocol.
Total RNA was prepared using NucleoSpin RNA Plus (Macherey-Nagel). After DNA digestion with TURBO DNase (Ambion), maximum 1000 ng RNA were reverse-transcribed using High-Capacity RNA-to-cDNA kit (Thermo Fisher Scientific). […] All assays were performed in triplicate.
HBs antigen secreted in cells supernatant were quantified, after required dilutions, with Autobio kits (AutoBio, China) according to manufacturer's protocol.
PHH are naturally susceptible to infection with HBV virions produced in vitro, leading to very high levels of replication of the virus.

[5] = change from baseline at day 29, EYP001a 1 × 100 mg/day oral monotherapy
[6] = change from baseline at day 29, EYP001a 1 × 200 mg/day oral monotherapy
[7] = change from baseline at day 29, EYP001a 1 × 400 mg/day oral monotherapy
[8] = change from baseline at day 29, EYP001a 2 × 200 mg/day oral monotherapy
[9] = change from baseline at end of 4-week treatment (day 29), ETV open-label 0.5 mg/day

With `O=C(O)c1cc2c(Cl)c(N3CCN(S(=O)(=O)c4c(Cl)cccc4Cl)CC3)ccc2o1` [EYP001a] the “HBVpgRNA Mean” value (HBV [1]; [5]) was 0.5 Log10 Copies mL, the “HBcrAg Mean” value (HBV [1]; [5]) was −0.3 Log10 IU mL and the “HBVpgRNA Mean” value (HBV [1]; [6]) was 0.4 Log10 Copies mL. The “HBcrAg Mean” value (HBV [1]; [6]) was 0.2 Log10 IU mL, the “HBVpgRNA Mean” value (HBV [1]; [7]) was 0.2 Log10 Copies mL and the “HBcrAg Mean” value (HBV [1]; [7]) was 0.02 Log10 IU mL. For the same compound, the “HBVpgRNA Mean” value (HBV [1]; [8]) was −0.1 Log10 Copies mL, the “HBcrAg Mean” value (HBV [1]; [8]) was 1.2 Log10 IU mL and the “mean HBsAg decrease” value (HBV [1]; end of treatment on day 29, 400 mg QD EYP001, p<0.05) was −0.1 log 10 IU/mL. The C4 (FXR) was “decreases”, the FGF19 (FXR) was “increases” and the pruritus [2] was “fewer pruritus”. The HBV viral load (HBV [3]) was “reduces HBV viral load”.

In the case of `C=C1[C@H](CO)[C@@H](O)C[C@@H]1n1cnc2c(=O)[nH]c(N)nc21` [ETV, entecavir, reference compound], the “HBVpgRNA Mean” value (HBV [1]; [9]) was −0.3 Log10 Copies mL and the “HBcrAg Mean” value (HBV [1]; [9]) was 0.03 Log10 IU mL.

In the case of `CC(C)c1onc(-c2c(Cl)cccc2Cl)c1COc1ccc(/C=C/c2cccc(C(=O)O)c2)c(Cl)c1` [GW4064, 3-[2-[2-Chloro-4-[[3-(2,6-dichlorophenyl)-5-(1-methylethyl)-4-isoxazolyl]methoxy]phenyl]ethenyl]benzoic acid], the HBeAg secretion [4] was “reduce in a dose response manner”, the HBsAg secretion [4] was “unable to significantly impact” and the “intracellular HBV RNA level” value [4] was “reduce in a dose response manner”. For the same compound, the viremia [4] was “unable to significantly impact”.
